From patent US20100056615A1, “USE OF TRICYCLIC DITERPENES AND THEIR DERIVATIVES FOR THE TREATMENT, CO-TREATMENT OR PREVENTION OF INFLAMMATORY DISORDERS AND/OR JOINT DISORDERS” (priority 2006, published 2010)

Legend:
Assay in all cases: Gene expression in human chondrocyte cells (SW1353), quantitative real-time PCR
Assay type in all cases: cell-based
Details in all cases: 12.5 μM compound, SW1353 chondrocytes, IL-1β treated
[1] = system: Human MMP-3
Description: (§1) The cells were treated with IL-1β, which is one of the natural mediators that induce cartilage breakdown and is detected in substantial amounts in osteoarthritic cartilage tissues and cells derived thereof. Treatment of cells with IL-1β triggers the expression of genes that are involved in catabolic events, such as MMPs. Also, treatment of the cells with IL-1β reduces the collagen expression levels (compared to untreated cells)
(§2) Chondrocytes (SW1353; purchased from the […] [ATCC]) were grown in cell culture medium according to the instructions from ATCC. For experimental treatments, cells were seeded into 6-well plates and cultured for two days until they reached confluence. Total cellular RNA was extracted from cultured cells and reverse-transcribed as described by Richard et al. Mol. Nutr. Food Res. 49, 431-442, 2005. Expression levels of distinct genes were determined by quantitative real-time PCR as described in Richard et al. Mol. Nutr. Food Res. 49, 431-442, 2005.

[2] = system: Aggrecan
Description: as §1, with “MMPs.” for “MMPs. Also, treatment of the cells with IL-1β reduces the collagen expression levels (compared to untreated cells)”
as §2, with “Mol. Nutr. […] Expression levels” for “Mol. Nutr. Food Res. 49, 431-442, 2005. Expression levels”, “Mol. Nutr.” for “Mol. Nutr. Food Res. 49, 431-442, 2005.”

[3] = system: Human MMP-1
Description: as §1, with “MMPs.” for “MMPs. Also, treatment of the cells with IL-1β reduces the collagen expression levels (compared to untreated cells)”
as §2, with “Mol. Nutr. […] Expression levels” for “Mol. Nutr. Food Res. 49, 431-442, 2005. Expression levels”, “Mol. Nutr.” for “Mol. Nutr. Food Res. 49, 431-442, 2005.”

[4] = system: Human MMP-13
Description: as §1, with “MMPs.” for “MMPs. Also, treatment of the cells with IL-1β reduces the collagen expression levels (compared to untreated cells)”
as §2, with “Mol. Nutr. […] Expression levels” for “Mol. Nutr. Food Res. 49, 431-442, 2005. Expression levels”, “Mol. Nutr.” for “Mol. Nutr. Food Res. 49, 431-442, 2005.”

[5] = system: Human collagen II
Description: as §1, with “MMPs.” for “MMPs. Also, treatment of the cells with IL-1β reduces the collagen expression levels (compared to untreated cells)”
as §2, with “Mol. Nutr. […] Expression levels” for “Mol. Nutr. Food Res. 49, 431-442, 2005. Expression levels”, “Mol. Nutr.” for “Mol. Nutr. Food Res. 49, 431-442, 2005.”

[6] = system: Human collagen I
Description: as §1, with “MMPs.” for “MMPs. Also, treatment of the cells with IL-1β reduces the collagen expression levels (compared to untreated cells)”
as §2, with “Mol. Nutr. […] Expression levels” for “Mol. Nutr. Food Res. 49, 431-442, 2005. Expression levels”, “Mol. Nutr.” for “Mol. Nutr. Food Res. 49, 431-442, 2005.”

Row | Structure (SMILES) | Human MMP-3 gene expression level relative to cells treated without the compound [1] | Aggrecan gene expression level relative to cells treated without the compound [2] | Human MMP-1 gene expression level relative to cells treated without the compound [3] | Human MMP-13 gene expression level relative to cells treated without the compound [4] | Human collagen II gene expression level relative to cells treated without the compound [5] | Human collagen I gene expression level relative to cells treated without the compound [6]
1 | COc1c(C(C)C)cc2c(c1O)[C@@]1(C(=O)O)CCCC(C)(C)[C@@H]1CC2 [Carnosic acid-12-methyl ether (XII), Carnosic acid 12-methylether] | 69% | 123% | 94% | 60% | 139% | –
2 | CC(C)c1cc2c(c(O)c1O)C1=C(CC2)C(C)(C)CCC1=O [Sageone (VII), Sageone] | 112% | 152% | 3% | 36% | – | 120%
